Measurements from patent US10844118B2, “Treatment of inflammatory skin disease” (CHILDREN'S MEDICAL CENTER CORPORATION, priority 2013, dated 2020).
“Also recorded” adds a separate entry of the source.

Columns and labels:
CD1a-transgenic mice = assay: DNFB hapten sensitization and challenge in CD1a-transgenic mice; assay type: in vivo
From the text: Finally, we wanted to examine whether CD1a-transgenic mice are generally prone to increased inflammatory responses. To this end, we treated mice with the well-established hapten DNFB (dinitrofluorobenzene). FIG. 7A depicts the skin sensitization and challenge schedule used for DNFB and urushiol application. […] It is well known that haptens like DNFB induce a prominent IFN-γ response, as we observed in WT mice (FIG. 7D). […] By contrast, the classical delayed type hypersensitivity (DTH) response to DNFB was rather decreased in the presence of CD1a. This underlines the specific nature of CD1a function in urushiol-induced contact dermatitis and psoriasis.

CD1a [1] = target: T1, CD1a (Homo sapiens, UniProt P06126); assay: MC903-induced atopic dermatitis model in CD1a-transgenic mice; assay type: in vivo; design: expressed in transfected cells; host or cells: CD1a-transgenic mice (compared with wild-type B6 mice); details: MC903 daily on ears, CD1a-transgenic mice compared to WT B6 controls
From the text: Atopic dermatitis is an inflammatory skin disease characterized by itchy and relapsing eczematous skin lesions. It affects approximately 30% of children and 10% of adults, costing up to $3.8 billion annually in the United States. The cause of atopic dermatitis remains unclear, and there is no cure available. Recently, it has been reported that IL-22-producing CD4 T cells are associated with initiation and progression of atopic dermatitis. Therefore, it is worthwhile to test whether anti-CD1a therapy can be extended to atopic dermatitis. For this purpose, we set up a mouse model of atopic dermatitis applying MC903 (calcipotriol, Vitamin D analogue) daily on the ears of experimental mice, which triggers atopic dermatitis-like skin inflammation characterized by red, scaly, and eczematous lesions. […] Furthermore, anti-CD1a Ab injection suppressed ear swelling and granulocyte infiltration in CD1a-transgenic mice.
The inventors tested the contribution of CD1a presence in MC903-induced atopic dermatitis. The vitamin D3 analogue MC903 was used to induce AD-like symptoms in wild-type (WT-B6) mice, CD1a transgenic mice, and CD1a transgenic mice that were treated with an anti-CD1a Ab. For CD1a blocking, 200 μg of anti-CD1a Ab was intraperitoneally injected into CD1a-transgenic mice every other day (−1, +1, +3, +5, and +7 days before and after MC903 treatment).
Target sequence in this assay (P06126 17-327): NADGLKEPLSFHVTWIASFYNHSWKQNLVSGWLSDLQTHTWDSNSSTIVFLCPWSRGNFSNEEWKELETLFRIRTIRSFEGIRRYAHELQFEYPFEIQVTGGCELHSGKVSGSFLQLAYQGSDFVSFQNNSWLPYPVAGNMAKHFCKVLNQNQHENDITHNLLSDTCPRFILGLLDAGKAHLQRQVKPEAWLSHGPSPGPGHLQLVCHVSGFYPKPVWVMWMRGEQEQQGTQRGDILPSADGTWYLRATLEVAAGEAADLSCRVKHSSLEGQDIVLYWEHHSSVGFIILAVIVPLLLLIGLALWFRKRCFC
Target sequence in this assay (P01887 21-119 partner): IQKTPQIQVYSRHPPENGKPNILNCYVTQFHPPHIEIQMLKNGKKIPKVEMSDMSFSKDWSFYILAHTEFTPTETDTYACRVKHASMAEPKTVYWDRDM

CD1a [2] = target: T1, CD1a; assay: imiquimod (IMQ) psoriasis model in CD1a-transgenic mice; assay type: in vivo, mouse; design: expressed in transfected cells; host or cells: CD1a-transgenic mice (compared with wild-type B6 mice)
From the text: Therefore, we subsequently investigated whether CD1a also plays an important role in psoriasis. For this purpose, we used a well-established model applying the small molecule imiquimod (IMQ) to the skin of mice, which induces psoriasis-like pathology after 3-6 days of daily administration. Strikingly, CD1a-transgenic mice responded with extensive ear swelling when compared to WT controls (FIG. 5A).
In order to test whether anti-CD1a therapy is able to abrogate skin inflammation in psoriasis, we performed IMQ treatment of mice and administered anti-CD1a antibody in parallel as described above. […] Of note, anti-CD1a therapy blocked the infiltration of IL-17 producing CD4 T cells.
Target sequence in this assay (P06126 17-327): as the sequence (P06126 17-327) above
Target sequence in this assay (P01887 21-119 partner): as the sequence (P01887 21-119 partner) above

CD1a [3] = target: T1, CD1a; assay: OCTET Bio-Layer Interferometry CD1a-lipid ligand binding assay; details: recombinant CD1a coupled to a biosensor, incubated with lipid ligand
From the text: In order to develop a small molecule inhibitor against CD1a, a CD1a binding assay as a platform can be used to test potential inhibitors from a chemical compound library. For this purpose, we have already established a read-out using the OCTET machine (from FORTEBIO) to measure the molecular interaction between CD1a and lipid ligands with high sensitivity. […] However, the great advantage of the OCTET is its straightforward assay set-up, and that it is amenable to high throughput screening using a 384-well plate format. Accordingly, we use recombinant CD1a molecules coupled to a biosensor, prior to incubation with the known lipid ligand sulfatide. […] In a next step, use pools of small organic molecules derived from a chemical compound library are tested by adding them to the CD1a-sulfatide binding assay. Subsequently, one can measure whether a small molecule candidate is able to inhibit the interaction between CD1a and its ligand.
Target sequence in this assay (P06126 17-300 limits assumed): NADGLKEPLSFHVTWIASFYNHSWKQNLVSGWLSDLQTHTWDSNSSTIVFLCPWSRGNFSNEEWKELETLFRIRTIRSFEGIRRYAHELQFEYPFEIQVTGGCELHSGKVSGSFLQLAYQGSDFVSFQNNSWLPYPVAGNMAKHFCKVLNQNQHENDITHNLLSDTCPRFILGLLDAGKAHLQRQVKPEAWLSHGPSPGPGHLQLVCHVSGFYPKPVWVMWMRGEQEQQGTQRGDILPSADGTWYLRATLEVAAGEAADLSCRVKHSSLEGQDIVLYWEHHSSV
Target sequence in this assay (P61769 21-119 partner): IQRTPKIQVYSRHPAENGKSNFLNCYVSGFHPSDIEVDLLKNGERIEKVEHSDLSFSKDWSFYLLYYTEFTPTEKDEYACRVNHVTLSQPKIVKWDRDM

CD1a [4] = target: T1, CD1a; assay: plate-bound binding assay, purified urushiol and recombinant CD1a; details: plate coated with lipid, biotinylated CD1a, streptavidin-peroxidase; compared to positive control sulfatide
From the text: Central to our invention is the discovery that CD1a expressed on Langerhans cells is able to mediate skin inflammation through the induction of CD1a-restricted T cells. Accordingly, T cells stimulated by CD1a produce inflammatory cytokines such as interferon (IFN) gamma and IL-17 that facilitate the development of inflammatory skin disease (FIG. 1A). The CD1a-mediated mechanism holds true for diverse skin diseases, including poison ivy contact dermatitis as well as psoriasis. […] For this purpose, we performed a plate-bound binding assay, using purified urushiol and recombinant CD1a. After coating the microtiter plates with urushiol or the known CD1a ligand sulfatide as positive control, plates were washed and subsequently incubated with biotinylated CD1a. Following incubation with streptavidin-peroxidase and the respective chromogenic enzyme substrate, optical density was measured indicating binding efficiency. […] Thus, urushiol from poison ivy is a ligand for CD1a.
Target sequence in this assay (P06126 17-300 limits assumed): as the sequence (P06126 17-300 limits assumed) above
Target sequence in this assay (P61769 21-119 partner): as the sequence (P61769 21-119 partner) above

CD1a [5] = target: T1, CD1a; assay: urushiol-induced contact dermatitis (poison ivy) in CD1a-transgenic mice; assay type: in vivo, mouse; design: expressed in transfected cells; host or cells: CD1a-transgenic mice (compared with wild-type B6 mice)
From the text: Next, we wanted to explore the function of CD1a in the in vivo response to urushiol. However, CD1a is mainly expressed in humans, and absent in experimental mice. Therefore, in vivo studies investigating CD1a function were not possible in the past. Therefore, we used mice transgenic for human CD1a to overcome that obstacle. FIG. 2A depicts the experimental set-up to investigate the skin immune response to poison ivy. Accordingly, CD1a-transgenic mice compared to wild-type (WT) mice were sensitized with urushiol on the abdomen following the epicutaneous route. Five days later, mice were challenged on the ear skin, prior to harvesting of inflamed ears and draining lymph nodes 48 h after challenge. […] Subsequently, we isolated the inflammatory cells from the ears, using in vitro enzyme digestion of ear tissues, prior to staining for neutrophils and T lymphocyte subsets.
In parallel, we also determined the cytokine profile of the T cells infiltrating the inflamed skin. Accordingly, we performed intracellular cytokine staining for IFN-γ, IL-17, and IL-22, prior to analysis by flow cytometry. […] IL-17 is known to mediate the recruitment of neutrophils, and IL-22 acts on epithelial cells to trigger their hyperproliferation, both cardinal features of skin inflammation.
Based on our findings that CD1a promotes skin inflammation, we next aimed at developing a therapeutic strategy to target CD1a in order to abrogate skin disease. To this end, we used an experimental blocking antibody to CD1a for intraperitoneal injection of mice. The treatment schedule included five injections of 100 μg anti-CD1a starting one day prior to sensitization with urushiol and followed by injections every other day until challenge and tissue harvest. […] To control for the efficiency of antibody treatment, we stained ear cells for CD1a, the crucial surface marker of Langerhans cells. […] Moreover, we investigated the impact of anti-CD1a treatment on the abundance of IL-17-producing CD4 T cells (also called Th17 cells). […] Taken together, we provide the proof of principle that anti-CD1a therapy abrogates skin inflammation.
Target sequence in this assay (P06126 17-327): as the sequence (P06126 17-327) above
Target sequence in this assay (P01887 21-119 partner): as the sequence (P01887 21-119 partner) above

[6] = intracellular cytokine staining, flow cytometry

Compound: O=[N+]([O-])c1ccc(F)c([N+](=O)[O-])c1 [DNFB, 2,4,-dinitro-1-fluorobenzene]
- T cell-derived IFN-γ (CD1a-transgenic mice; CD1a-transgenic animals, response biased towards IL-17): significantly reduced
- abundance of inflammatory granulocytes, flow cytometry (CD1a-transgenic mice; CD1a-transgenic mice): strikingly reduced
- ear swelling (inflammation) (CD1a-transgenic mice; CD1a-transgenic mice, in contrast to poison ivy challenge): reduction
- IFN-γ response (CD1a-transgenic mice; WT mice): prominent

Compound: C=C1/C(=C\C=C2/CCC[C@]3(C)[C@@H]([C@H](C)/C=C/[C@@H](O)C4CC4)CC[C@@H]23)C[C@@H](O)C[C@@H]1O [MC903, calcipotriol]
- Gr1+CD11b+ granulocyte infiltration (CD1a [1]): significantly amplified
- ear swelling (CD1a [1]): significantly amplified

Compound: CC(C)Cn1cnc2c(N)nc3ccccc3c21 [imiquimod]
- ear swelling (CD1a [2]; IMQ on skin, CD1a-transgenic mice compared to WT controls): extensive
- Gr-1+CD11b+ neutrophils and αβ T cells in the skin, flow cytometry (CD1a [2]; IMQ, CD1a-transgenic mice): dramatic increase
- cytokine profile of inflammatory T cells (CD1a [2]; IMQ, CD1a-transgenic mice): mainly consisted of CD4 T cells producing IL-17 and IL-22

Compound: sulfatide
- binding curves, molecular interaction with CD1a (CD1a [3]): sensitive and specific binding curves

Compound: urushiol
- binding to CD1a (optical density) (CD1a [4]): specific binding; also recorded: interacts as a ligand
- ear swelling (ear thickness) (CD1a [5]; 2 days after urushiol challenge, CD1a-transgenic mice compared to WT controls): drastically increased
- CD4+αβ T cells in urushiol-challenged skin (CD1a [5]; CD1a-dependent fashion): expanded
- frequency of Th17 cells (CD1a [5]; CD1a-transgenic mice challenged with urushiol): drastically increased
- IFN-γ response of T cells infiltrating the inflamed skin (CD1a [5]; [6]): failed to induce
- cytokine profile of T cells responding to challenge (CD1a [5]; [6]): mainly produced the cytokines IL-17 and IL-22
- neutrophil infiltration (Gr-1, CD11b), flow cytometry (CD1a [5]; urushiol-challenged ears, CD1a-transgenic mice vs WT): striking increase
